Measurements as given in patent US7507717B2 (Xenome Ltd., priority 2002, dated 2009).

Tests used:
[1] = molecular target: T1, human noradrenaline transporter (hNET) (Homo sapiens, UniProt P23975); experiment: biochemical; type: binding; details: Av IC50 Displacement of 3H-nisoxetine from hNET
T1 construct: expressed in transfected cells; host or cells: COS-7 cells (ATCC), transient transfection with metafectene

[2] = molecular target: T1, human noradrenaline transporter (hNET); experiment: cell-based

T1 sequence (P23975 whole entry): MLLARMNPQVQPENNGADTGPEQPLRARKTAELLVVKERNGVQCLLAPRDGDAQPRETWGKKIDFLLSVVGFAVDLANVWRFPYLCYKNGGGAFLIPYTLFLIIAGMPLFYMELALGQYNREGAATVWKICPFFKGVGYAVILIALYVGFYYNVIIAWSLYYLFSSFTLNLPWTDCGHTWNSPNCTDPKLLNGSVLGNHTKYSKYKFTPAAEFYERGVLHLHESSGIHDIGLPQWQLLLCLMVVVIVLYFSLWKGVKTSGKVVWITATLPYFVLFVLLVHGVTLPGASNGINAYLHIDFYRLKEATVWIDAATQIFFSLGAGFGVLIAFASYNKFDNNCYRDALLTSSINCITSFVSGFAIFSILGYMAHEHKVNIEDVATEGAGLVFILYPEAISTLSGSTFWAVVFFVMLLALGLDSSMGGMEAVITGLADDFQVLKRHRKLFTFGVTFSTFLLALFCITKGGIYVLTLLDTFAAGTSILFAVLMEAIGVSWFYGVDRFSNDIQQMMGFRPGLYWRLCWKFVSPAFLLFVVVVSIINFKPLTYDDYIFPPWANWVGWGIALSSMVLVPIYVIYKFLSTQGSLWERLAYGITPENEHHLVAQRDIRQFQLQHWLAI

SMILES	IC50 [1]	IC50 [2]
CC(C)C[C@@H]1NC(=O)[C@H](CCCCN)NC(=O)[C@H](Cc2ccc(O)cc2)NC(=O)CNC(=O)[C@@H]2CSSC[C@H](NC1=O)C(=O)N[C@@H](Cc1c[nH]cn1)C(=O)N1CCC[C@H]1C(=O)N[C@H](C(N)=O)CSSC[C@H](NC(=O)[C@@H](NC(=O)CNC(=O)[C@@H](N)CC(N)=O)C(C)C)C(=O)N2 [compound 146]	3.09 µM	0.741 µM
CC(C)C[C@@H]1NC(=O)[C@H](CCCCN)NC(=O)[C@H](Cc2ccc(O)cc2)NC(=O)CNC(=O)[C@@H]2CSSC[C@H](NC1=O)C(=O)N[C@@H](Cc1c[nH]cn1)C(=O)N1CCC[C@H]1C(=O)N[C@H](C(N)=O)CSSC[C@H](NC(=O)[C@@H](NC(=O)CNC(=O)[C@H](CC(N)=O)NC(=O)[C@@H](N)Cc1c[nH]c3ccccc13)C(C)C)C(=O)N2 [compound 82]	0.295 µM	3.16 µM
